Measurements published in patent publication US20250188030A1, “Biphenyl and Phenylpyridine Compounds” (Pfizer Inc., priority 2023, published 2025).

Experiments:
KAT2A = KAT2A (Homo sapiens (Human), UniProt Q92830); assay: KAT2A acetyltransferase biochemical assay (RapidFire mass spectrometry, AcCoA to CoA); settings: read-out: KAT2A Ki at 1 μM AcCoA, 5 μM H3 1-21 peptide, 0.5 nM KAT2A, 90-minute reaction
H3K9AC (HT1080 cells) = assay: H3K9AC Sandwich ELISA Assay in HT1080 cells (KAT2A primary cell-based screening assay); parameters: species or system Human
Experimental: Human fibrosarcoma cell line HT1080 was obtained from American Type Culture Collection (ATCC), Manassas, VA USA, Cat. HT-1080 (ATCC® CCL-121™). Cells were cultured in MEM (Thermo Fisher Scientific/Gibco Life Technologies Cat. #11-095-080) plus 10% (v/v) FBS (Thermo Fisher Scientific/Gibco Life Technologies Cat. #26140-079) and 1% Penicillin-Streptomycin (Thermo Fisher Scientific/Gibco Life Technologies Cat. #15070063) at 37° C. in 5% CO2.
HT1080 cells were trypsinized, cell viability count performed, and cells suspended in complete media at 100,000 cells/ml. Cells were seeded (100 μl/well) into Greiner Bio-One CELLSTAR 96-well polystyrene flat bottom cell culture microplate (Thermo Fisher Scientific Cat. #07-000-162) at a density of 10,000 cells/well. Cells were incubated for 16 hours at 37° C. at 5% CO2. Compound dilution plates were prepared in 96-well, clear U-bottom, polypropylene plates (Corning 3365) in 100% DMSO at 10 mM stock concentration in duplicate, using 10-point serial dilution (1:3). Compounds were diluted to 1:200 in growth medium and 25 μl from intermediate compound plates were added to each well of the cell plates using a Beckman FX liquid handling system such that the highest compound concentration tested was 10 μM final, with a 0.1% final DMSO concentration in the total volume of 125 μl. Plates were incubated for 24 hours at 37° C. and 5% CO2. Plates were centrifuged at 2500 rpm for 5 minutes and medium was removed. 100 μL 0.4N HCL (Thermo Fisher Scientific Cat #SA56-1) was added to each well and plates were shaken for 60 minutes at 4C to lyse cells. 38ul 0.4N Sodium phosphase dibasic pH12.5 (Thermo Fisher Scientific Cat #S375-212) containing 2 mM Sodium Butyrate (Millipore TR1008G) and 3 mM Phenylmethanesulfonyl-fluoride (Sigma 93482) was added to each well to neutralize lysates.
Cell lysate plates were mixed for 5 minutes at room temperature on shaker and immediately frozen at −80C overnight. Cell lysates were thawed and 50 μL/well was transferred to ELISA plates (Total Histone H3 mouse (Cell Signaling Technology Cat #14269) mAb-coated Corning 1×8 strip-well, white, 96-well plates (Corning 2485)). After 2 hours room temperature incubation, plates were washed six times with PBS/0.05% Tween Wash Buffer using a BioTek plate washer. 50 μL of Histone H3K9AC rabbit detection mAb (Cell Signaling Technology Cat #9649S) diluted 1:1000 in blocking buffer (Thermo Fisher Scientific Cat #37542) was added to each well and incubated for 2 hours at room temperature. After washing, 50 μL anti-rabbit IgG, HRP-Linked antibody (Cell Signaling Technology Cat #7074) diluted 1:1000 in blocking buffer was added to each well and incubated for 60 minutes at room temperature. Following incubation, plates were washed as described above. 50 μL of luminescent GLO substrate reagent (R&D System Cat #DY993) was added to each well and incubated for 10 minutes at room temperature. Plates were read on the PHERAstar plate reader using the 96-well with Luminescent reading mode. IC50 values were calculated using a four-parameter fit with GraphPad Prism version 9.5.1 or in-house modified IDBS ActivityBase data analyzing package.

[1] = Homo sapiens, HT-1080, H3K9AC sandwich ELISA

KAT2A, sequence (Q92830 whole entry): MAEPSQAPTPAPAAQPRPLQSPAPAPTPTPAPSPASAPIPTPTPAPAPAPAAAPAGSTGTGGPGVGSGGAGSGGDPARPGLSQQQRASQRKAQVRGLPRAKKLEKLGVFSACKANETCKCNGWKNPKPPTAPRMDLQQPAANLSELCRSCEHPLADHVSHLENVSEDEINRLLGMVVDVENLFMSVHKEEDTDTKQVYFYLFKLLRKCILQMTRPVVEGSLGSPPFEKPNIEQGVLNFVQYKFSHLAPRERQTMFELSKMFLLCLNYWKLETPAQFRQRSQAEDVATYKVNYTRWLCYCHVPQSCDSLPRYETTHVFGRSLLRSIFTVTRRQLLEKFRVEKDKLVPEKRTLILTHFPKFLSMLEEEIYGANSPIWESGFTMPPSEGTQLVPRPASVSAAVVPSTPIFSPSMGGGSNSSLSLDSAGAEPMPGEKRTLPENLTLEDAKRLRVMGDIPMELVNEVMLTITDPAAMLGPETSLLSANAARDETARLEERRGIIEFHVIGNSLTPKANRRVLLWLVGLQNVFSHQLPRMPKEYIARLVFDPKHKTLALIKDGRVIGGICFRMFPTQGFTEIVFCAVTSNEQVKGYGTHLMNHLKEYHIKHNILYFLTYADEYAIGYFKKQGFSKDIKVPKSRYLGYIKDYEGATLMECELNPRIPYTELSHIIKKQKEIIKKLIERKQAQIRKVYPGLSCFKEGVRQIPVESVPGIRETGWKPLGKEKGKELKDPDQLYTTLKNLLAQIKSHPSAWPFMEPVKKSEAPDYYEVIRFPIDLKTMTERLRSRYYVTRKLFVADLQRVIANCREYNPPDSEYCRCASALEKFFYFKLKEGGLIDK

SMILES	Ki (KAT2A)	IC50 (H3K9AC (HT1080 cells); [1])	IC50 (H3K9AC (HT1080 cells); H3K9AC sandwich ELISA)
CC1(S(=O)(=O)NC(=O)Cc2ccc(O[C@@H]3CC[C@@H](NC(=O)[C@@]4(F)CNC5(CCCC5)C4)C3)c(-c3cccc(F)c3C3CCC3)c2)CC1 (single isomer, unassigned) [Example C69]	0.04 nM	0.6 nM	–
CCc1c(F)cccc1-c1cc(C(C)(C)C(=O)NS(=O)(=O)C2(C)CC2)ccc1O[C@@H]1CC[C@@H](NC(=O)[C@@]2(F)CNC3(CCC3)C2)C1 [Example C23, (7S)-N-[(1R,3R)-3-({2′-ethyl-3′-fluoro-5-[2-methyl-1-(1-methylcyclopropane-1-sulfonamido)-1-oxopropan-2-yl][1,1′-biphenyl]-2-yl}oxy)cyclopentyl]-7-fluoro-5-azaspiro[3.4]octane-7-carboxamide]	6.57 nM	91.8 nM	–
CCc1c(F)cccc1-c1cc(CC(=O)NS(=O)(=O)C(C)C)ccc1O[C@@H]1CC[C@@H](NC(=O)[C@@]2(F)CNC3(CCCC3)C2)C1 (single isomer, unassigned) [Example C73]	0.05 nM	–	4.8 nM
CCS(=O)(=O)NC(=O)C(C)c1ccc(O[C@@H]2CC[C@@H](NC(=O)[C@@]3(F)CNC4(CCC4)C3)C2)c(-c2cccc(F)c2C2CCC2)c1 (single isomer, unassigned) [Example C90]	0.05 nM	3.3 nM	–
CC(C)c1ccccc1-c1cc(CC(=O)NS(=O)(=O)C2(C)CC2)ccc1O[C@@H]1CC[C@@H](NC(=O)[C@@]2(F)CNCC(C)(C)C2)C1 (single isomer, unassigned) [Example C80]	0.11 nM	–	2.6 nM
CC(C)(C(N)=O)c1ccc(O[C@@H]2CC[C@@H](NC(=O)[C@]3(F)CNC4(CCC4)C3)C2)c(-c2cccc(F)c2C2CCC2)c1 (single isomer, unassigned) [Example C15]	1270 nM	> 1000 nM	–
CC1(C)CNC[C@](F)(C(=O)N[C@@H]2CC[C@@H](Oc3ccc(CC(=O)NS(=O)(=O)C4(C)CC4)cc3-c3cccc(F)c3C3CCC3)C2)C1 (single isomer, unassigned) [Example C78]	0.08 nM	–	> 1000 nM
CC(C)(C(=O)NS(C)(=O)=O)c1ccc(O[C@@H]2CC[C@@H](NC(=O)[C@@]3(F)CNC4(CCC4)C3)C2)c(-c2cccc(F)c2C2CC2)c1 (single isomer, unassigned) [Example C13]	23.4 nM	942 nM	–
CN1C[C@@](F)(C(=O)N[C@@H]2CC[C@@H](Oc3ccc(C(C)(C)C(=O)NS(C)(=O)=O)cc3-c3cccc(F)c3C3CCC3)C2)CC1(C)C (single isomer, unassigned) [Example B8]	716 nM	> 1000 nM	–
CC1(C)CNC[C@](F)(C(=O)N[C@@H]2CC[C@@H](Oc3ccc(C(C)(C)C(=O)O)cc3-c3cccc(F)c3C3CCC3)C2)C1 (single isomer, unassigned) [Example A15]	> 1000 nM	–	296 nM
CC(C)c1ccccc1-c1cc(CC(=O)NS(=O)(=O)C2(C)CC2)ccc1O[C@@H]1CC[C@@H](NC(=O)[C@@]2(F)CNCC(C)(C)C2)C1 (single isomer, unassigned) [Example C81]	31.1 nM	–	135 nM
CC(C)S(=O)(=O)NC(=O)Cc1ccc(O[C@@H]2CC[C@@H](NC(=O)[C@@]3(F)CNCC(C)(C)C3)C2)c(-c2cccc(F)c2C2CCC2)c1 (single isomer, unassigned) [Example C77]	0.05 nM	–	6 nM
CCc1c(F)cccc1-c1cc([C@@H](C)C(=O)NS(=O)(=O)C2(C)CC2)ccc1O[C@@H]1CC[C@@H](NC(=O)[C@@]2(F)CNC3(CCCC3)C2)C1 (single isomer, unassigned) [Example C85]	0.17 nM	–	6.1 nM
CC(C)S(=O)(=O)NC(=O)Cc1ccc(O[C@@H]2CC[C@@H](NC(=O)[C@@]3(F)CNCC(C)(C)C3)C2)c(-c2cccc(F)c2C2CCC2)c1 (single isomer, unassigned) [Example C76]	46 nM	–	485 nM
CC(C)(C(=O)NS(=O)(=O)N1CC(F)(F)C1)c1ccc(O[C@@H]2CC[C@@H](NC(=O)[C@]3(F)CNC4(CCC4)C3)C2)c(-c2cccc(F)c2C2CCC2)c1 (single isomer, unassigned) [Example B10]	0.15 nM	15.7 nM	–
CC(C)c1ccccc1-c1cc(CC(=O)NS(=O)(=O)C(C)C)ccc1O[C@@H]1CC[C@@H](NC(=O)[C@@]2(F)CNCC(C)(C)C2)C1 (single isomer, unassigned) [Example C75]	0.17 nM	–	4.5 nM
CCS(=O)(=O)NC(=O)Cc1ccc(O[C@@H]2CC[C@@H](NC(=O)[C@@]3(F)CNCC4(CCC4)C3)C2)c(-c2cccc(F)c2C2CCC2)c1 (single isomer, unassigned) [Example C59]	12.1 nM	–	440 nM
CCc1c(F)cccc1-c1cc(CC(=O)NS(=O)(=O)C2(C)CC2)ccc1O[C@@H]1CC[C@@H](NC(=O)[C@@]2(F)CNCC(C)(C)C2)C1 (single isomer, unassigned) [Example C56]	> 99.9 nM	–	> 1000 nM

Continued, values first:

Ki (KAT2A)	IC50 (H3K9AC (HT1080 cells); [1])	IC50 (H3K9AC (HT1080 cells); H3K9AC sandwich ELISA)	SMILES
12.4 nM	66.6 nM	–	CC(C)c1c(F)cccc1-c1cc(CC(=O)O)ccc1O[C@@H]1CC[C@@H](NC(=O)[C@@H]2CC(C)(C)CN2C)C1 [Example D12, [3′-fluoro-2′-(propan-2-yl)-6-({(1R,3R)-3-[(1,4,4-trimethyl-L-prolyl)amino]cyclopentyl}oxy)[1,1′-biphenyl]-3-yl]acetic acid]
> 99.9 nM	–	> 1000 nM	CN(C)S(=O)(=O)NC(=O)Cc1cccc(O[C@@H]2CC[C@@H](NC(=O)[C@@]3(F)CNC4(CCC4)C3)C2)c1-c1cccc(F)c1C1CCC1 (atropisomer, axis not shown) [Example I15, (7S)-N-[(1R,3R)-3-({(1ψ)-2′-cyclobutyl-6-[2-(dimethylsulfamamido)-2-oxoethyl]-3′-fluoro[1,1′-biphenyl]-2-yl}oxy)cyclopentyl]-7-fluoro-5-azaspiro[3.4]octane-7-carboxamide]
13.7 nM	7.1 nM	–	CC(C)S(=O)(=O)NC(=O)c1cccc(O[C@@H]2CC[C@@H](NC(=O)[C@@]3(F)CNC4(CCC4)C3)C2)c1-c1cccc(F)c1C1CCC1 (atropisomer, axis not shown) [Example I19, (7S)-N-[(1R,3R)-3-({(1ψ)-2′-cyclobutyl-3′-fluoro-6-[(propane-2-sulfonyl)carbamoyl][1,1′-biphenyl]-2-yl}oxy)cyclopentyl]-7-fluoro-5-azaspiro[3.4]octane-7-carboxamide]
2.15 nM	20.5 nM	–	C[C@H](C(=O)NS(C)(=O)=O)c1ccc(OC[C@H]2C[C@H](NC(=O)[C@@H]3CC(C)(C)CN3C)C2)c(-c2cccc(F)c2C2CCC2)c1 (single isomer, unassigned) [Example G3]
2.64 nM	14.4 nM	–	CN1CC(C)(C)C[C@H]1C(=O)N[C@@H]1CC[C@@H](Oc2ccc(C(C)(C)c3noc(=O)[nH]3)cc2-c2cccc(F)c2C2CCC2)C1 [Example D17, N-[(1R,3R)-3-({2′-cyclobutyl-3′-fluoro-5-[2-(5-oxo-4,5-dihydro-1,2,4-oxadiazol-3-yl)propan-2-yl][1,1′-biphenyl]-2-yl}oxy)cyclopentyl]-1,4,4-trimethyl-L-prolinamide]
> 99.9 nM	–	> 1000 nM	CC1(C)CNC[C@](F)(C(=O)N[C@@H]2CC[C@@H](Oc3cccc(CC(=O)O)c3-c3cccc(F)c3C3CCC3)C2)C1 (atropisomer, axis not shown) [Example H12, [(1 ψ)-2′-cyclobutyl-3′-fluoro-6-{[(1R,3R)-3-{[(3ξ)-3-fluoro-5,5-dimethylpiperidine-3-carbonyl]amino}cyclopentyl]oxy}[1,1′-biphenyl]-2-yl]acetic acid]
2.16 nM	–	4300 nM	Cn1cc(-c2ccc(O[C@@H]3CC[C@@H](NC(=O)[C@]4(F)CNC5(CCC5)C4)C3)c(-c3cccc(F)c3C3CCC3)c2)c(C(=O)O)n1 (single isomer, unassigned) [Example J9]
